# The NIST ThermoML archive (doi:10.1021/je034209e)
# Numbers after ± are expanded uncertainties.
# Assay: mn = molality of the nth substance listed, in mol/kg
# Settings: 298.15 K, 101.3 kPa, Liquid, Vibrating tube method
smiles,measurement,setting,value
NCC(=O)O [2-aminoacetic acid] + O,mass density,m1 = 0.09741,1000.14 ± 1.7 kg/m3
same,mass density,m1 = 0.2011,1003.37 ± 1.7 kg/m3
same,mass density,m1 = 0.3016,1006.46 ± 1.8 kg/m3
same,mass density,m1 = 0.3936,1009.25 ± 1.8 kg/m3
same,mass density,m1 = 0.4878,1012.07 ± 1.8 kg/m3
same,mass density,m1 = 0.5916,1015.1 ± 1.8 kg/m3
CCC(N)C(=O)O (stereo not drawn) [(.+-.)-α-aminobutyric acid] + O,mass density,m1 = 0.03934,998.127 ± 1.7 kg/m3
same,mass density,m1 = 0.08124,999.275 ± 1.7 kg/m3
same,mass density,m1 = 0.1445,1000.99 ± 1.7 kg/m3
same,mass density,m1 = 0.2022,1002.54 ± 1.7 kg/m3
same,mass density,m1 = 0.2374,1003.48 ± 1.8 kg/m3
same,mass density,m1 = 0.2864,1004.78 ± 1.8 kg/m3
same,mass density,m1 = 0.3179,1005.6 ± 1.8 kg/m3
CC(N)C(=O)O (stereo not drawn) [DL-2-aminopropanoic acid] + O,mass density,m1 = 0.0436,998.297 ± 1.7 kg/m3
same,mass density,m1 = 0.08036,999.343 ± 1.7 kg/m3
same,mass density,m1 = 0.1483,1001.26 ± 1.7 kg/m3
same,mass density,m1 = 0.2059,1002.86 ± 1.7 kg/m3
same,mass density,m1 = 0.3297,1006.26 ± 1.8 kg/m3
same,mass density,m1 = 0.3863,1007.79 ± 1.8 kg/m3
same,mass density,m1 = 0.4436,1009.33 ± 1.8 kg/m3
CC(C)C[C@H](N)C(=O)O [L-leucine] + O,mass density,m1 = 0.01266,997.346 ± 1.7 kg/m3
same,mass density,m1 = 0.01738,997.458 ± 1.7 kg/m3
same,mass density,m1 = 0.02274,997.582 ± 1.7 kg/m3
same,mass density,m1 = 0.03028,997.762 ± 1.7 kg/m3
same,mass density,m1 = 0.03943,997.975 ± 1.7 kg/m3
same,mass density,m1 = 0.04666,998.149 ± 1.7 kg/m3
same,mass density,m1 = 0.05611,998.37 ± 1.7 kg/m3
N[C@@H](Cc1ccccc1)C(=O)O [L-phenylalanine] + O,mass density,m1 = 0.01545,997.721 ± 1.7 kg/m3
same,mass density,m1 = 0.02099,997.961 ± 1.7 kg/m3
same,mass density,m1 = 0.02977,998.343 ± 1.7 kg/m3
same,mass density,m1 = 0.03372,998.516 ± 1.7 kg/m3
same,mass density,m1 = 0.04624,999.058 ± 1.7 kg/m3
same,mass density,m1 = 0.05305,999.349 ± 1.7 kg/m3
same,mass density,m1 = 0.05832,999.577 ± 1.7 kg/m3
CC(=O)[O-].[Na+] [sodium ethanoate] + O,mass density,m1 = 0.5,1023.28 ± 1.8 kg/m3
same,mass density,m1 = 1,1047.56 ± 1.8 kg/m3
same,mass density,m1 = 2,1086.81 ± 1.9 kg/m3
same,mass density,m1 = 4,1123.24 ± 2 kg/m3
same,mass density,m1 = 5.5,1139.16 ± 2 kg/m3
